Source: ChEMBL document CHEMBL1909553, “Design, synthesis and biological evaluation of substituted 11H-benzo[a]carbazole-5-carboxamides as novel antitumor agents” (Eur J Med Chem, 2011)
Active and inactive are the calls of the source. No cut-off for these calls is given here.

Experiments:
A549 = experiment: Growth inhibition of human A549 cells measured after 72 hrs by SRB assay; assay type: functional, cell-based; details: A549, 72 h
HCT-116 [1] = experiment: Growth inhibition of human HCT116 cells measured after 72 hrs by SRB assay; assay type: functional, cell-based; details: HCT-116, 72 h
HL-60 [2] = experiment: Cell cycle arrest in human HL60 cells assessed as accumulation at G2/M phase at 2 uM after 24 hrs by propidium iodide staining-based flow cytometric analysis relative to control; assay type: functional
Nucleic Acid = experiment: Binding affinity to linearized Escherichia coli pBR322 DNA assessed as inhibition of T4-DNA ligase-mediated circularization at 100 uM after 30 mins by agarose gel electrophoresis; assay type: nucleic-acid assay
HL-60 [3] = experiment: Cell cycle arrest in human HL60 cells assessed as accumulation at G2/M phase at 8 uM after 24 hrs by propidium iodide staining-based flow cytometric analysis relative to control; assay type: functional
HCT-116 [4] = experiment: Antitumor activity against human HCT116 cells transplanted in nude mouse assessed as tumor volume at 15 mg/kg, iv administered three times per week for three weeks relative to control; assay type: functional
HCT-116 [5] = experiment: Antitumor activity against human HCT116 cells transplanted in nude mouse assessed as decrease in tumor volume at 15 mg/kg, iv administered three times per week for three weeks measured on day 21 (reference value: 1245 +/- 192 mm'3); assay type: functional
Mus musculus = experiment: Toxicity in nude mouse xenografted with human HCT116 cells assessed as body weight change at 15 mg/kg, iv administered three times a week for 3 weeks (reference value: 19.4 g); assay type: organism-based, HCT-116; parameters: dose 15 mg/kg, route intravenous; details: in vivo, 504 h

| IC50 (A549) | IC50 (HCT-116 [1]) | SMILES | further results |
| --- | --- | --- | --- |
| 25.6 µM | 17.5 µM | O=C(NCCNCCO)c1cc2c3ccccc3[nH]c2c2cc(Br)ccc12 | – |
| > 100 µM | > 100 µM | O=C(NCCO)c1cc2c3ccccc3[nH]c2c2cc(Br)ccc12 | – |
| 17.5 µM | 16.2 µM | CNCCNC(=O)c1cc2c3ccccc3[nH]c2c2cc(Br)ccc12 | – |
| 8.2 µM | 9.5 µM | CN(C)CCCNC(=O)c1cc2c3ccccc3[nH]c2c2cc(Br)ccc12 [listing 1 of 2 here] | Activity (HL-60 [2]): 61.3% |
| 0.4 µM | 2.2 µM | CN(C)CCN1C(=O)c2cccc3c2c(cc2c4ccccc4sc32)C1=O | inhibition (Nucleic Acid): Active; Activity (HL-60 [2]): 52.48% |
| 38.4 µM | 36.2 µM | CN(C)CCNC(=O)c1cc2c3ccccc3[nH]c2c2cc(N)ccc12 | – |
| 19.5 µM | 17 µM | O=C(NCCN1CCCCC1)c1cc2c3ccccc3[nH]c2c2cc(Br)ccc12 | – |
| 12.1 µM | 8.8 µM | CN(C)CCNC(=O)c1cc2c3ccccc3[nH]c2c2cc(Br)ccc12 | inhibition (Nucleic Acid): Active; Activity (HL-60 [3]): 48.13% |
| – | – | CN(C)CCCNC(=O)c1cc2c3ccccc3[nH]c2c2cc(Br)ccc12 [listing 2 of 2 here] | inhibition (Nucleic Acid): Active |
| 10.6 µM | 11 µM | O=C(NCCN1CCCC1)c1cc2c3ccccc3[nH]c2c2cc(Br)ccc12 | – |
| 9.4 µM | 64.9 µM | O=C(NCCN1CCOCC1)c1cc2c3ccccc3[nH]c2c2cc(Br)ccc12 | – |
| – | – | CN(C)CCN1C(=O)c2cccc3cc(N)cc(c23)C1=O.O=C(O)CC(O)(CC(=O)O)C(=O)O [AMONAFIDE CITRATE] | T/C (HCT-116 [4]): 52.74%; Activity (HCT-116 [5]): 664 mm3; Activity (Mus musculus): 14.6 g |
| 68.4 µM | 70.3 µM | O=C(NCCN1CCNCC1)c1cc2c3ccccc3[nH]c2c2cc(Br)ccc12 | – |
| 23.8 µM | 23.8 µM | CN(C)CCNC(=O)c1cc2c3ccccc3[nH]c2c2ccccc12 | – |
| 23.1 µM | 20.1 µM | CN(C)CCNC(=O)c1cc2c3ccccc3[nH]c2c2cc(N(C)C)ccc12 | – |
| – | – | CN(C)CCCNC(=O)c1cc2c3ccccc3[nH]c2c2cc(Br)ccc12.O=C(O)CC(O)(CC(=O)O)C(=O)O | T/C (HCT-116 [4]): 58.97%; Activity (HCT-116 [5]): 676 mm3; Activity (Mus musculus): 16.3 g |

| SMILES | IC50 (A549) | IC50 (HCT-116 [1]) | further results |
| --- | --- | --- | --- |
| CN(C)CCN1C(=O)c2cccc3cc(N)cc(c23)C1=O [AMONAFIDE] | 8.1 µM | 15.3 µM | – |
